According to US20130324595A1, “C-GLUCOSIDIC ELLAGITANNIN COMPOUNDS FOR USE FOR ALTERING THE SUPRAMOLECULAR ARRANGEMENT OF ACTIN AND FOR THE TREATMENT OF OSTEOPOROSIS, CANCER, BACTERIAL INFECTION AND VIRAL INFECTION” (priority 2011, published 2013):
“Also recorded” adds a separate entry of the source. *1 amine or outer side, *2 acyl side, *3 side chain or, on linkers, in order; H or OH if unused. Where a SMILES comes first, the peptide text is derived from it. Bridges are numbered along the chain shown (N, C = ends). [ ]: non-standard residue; d: D form. Trp(2-yl) = O=C([C@H](Cc1c([*:3])[nH]c2ccccc12)N[*:1])[*:2]; Leu(4R-OH,5-OH) = C[C@](O)(CO)C[C@H](N)C(=O)O; cisHyp = O=C(O)[C@@H]1C[C@H](O)CN1

How the values were obtained:
osteoclast [1] = conditions: cited from earlier work
osteoclast [2] = conditions: cited from earlier work; remark: listed apart in the source
[3] = tested on: podosomes in bovine aortic endothelial cells (BAEc); assay: podosome formation in TGF-β stimulated BAEc; type: cell-based; conditions: for inhibition of podosome formation: compound added from the beginning of the TGF-β stimulation (24 h) versus last hour
Description: FIG. 7. Dose responses of endothelial cells following vescalagin or vescalin treatment. BAEc were incubated for 24 hours with TGF-β (which stimulates formation of podosomes), and different concentrations of vescalagin or vescalin were added either from the beginning of the TGF-β stimulation, or during the last hour of stimulation. Cells were then fixed and treated for immunofluorescence analysis. Podosomes were visualized by double staining using phalloidin (a F-actin marker) and cortactin (a podosome marker). The percentage of total cells showing podosomes was then quantified and compared to the control (cells incubated with TGF-β only). A. BAEc were stimulated for 24 hours with TGF-β, and vescalagin or vescalin was added during the last hour of stimulation. B. BAEc were stimulated for 24 hours with TGF-β, and vescalagin or vescalin was added from the beginning of the TGF-β stimulation.
In this assay, bovine aortic endothelial cells (BAEc) were used. These cells form podosomes following a few hours of incubation with TGF-β. Cells were fixed after 24 hours of stimulation. Two protocols were tested. In the first protocol, cells were stimulated for 24 hours with TGF-β, and vescalagin or vescalin was added during the last hour of stimulation (FIG. 7A). In the second protocol, cells were stimulated for 24 hours with TGF-β, and vescalagin or vescalin was added from the beginning of the TGF-β stimulation (FIG. 7B). In both cases, cells were then fixed and treated for immunofluorescence analysis. Podosomes were visualized by double staining using phalloidin (a F-actin marker) and cortactin (a podosome marker). The percentage of total cells showing podosomes was then quantified and compared to the control (cells incubated with TGF-β only) (FIGS. 7A and 7B).

actin cytoskeleton = assay: reversibility of cytoskeletal alterations by washing out; type: cell-based
Description: The vescalagin-induced F-actin disrupting effect seen in BAEc was also observed in fibroblast cells (baby hamster kidney cells, BHK), which also express β-actin as the main actin isoform, as well as in smooth muscle cells (A7r5), which in contrast predominantly express α-actin.
It rapidly enters cells, and this despite its high hydrophilicity. Its dose-dependent effects on the actin cytoskeleton relies on its interaction with F-actin without any perturbation of the microtubule network. […] The results found by the inventors are consistent with a mode of action through which the binding of vescalagin occurs along the length of the actin filament, probably at the protein-protein interface of the so-polymerized actin supramolecular association. The presence of two analogous polyhydroxylated arene motifs (i.e., the NHTP and HHDP units, see FIG. 1) likely constitutes the key structural feature that enables vescalagin to wind F-actin into balls by engaging it through multiple intra- and/or intermolecular contacts. […] Future studies will be devoted to the elucidation of the vescalagin-actin interaction at the molecular level and to the comparative evaluation of the anti-actin effects of the other C-glucosidic ellagitannins initially screened herein. Moreover, the SPR method the inventors developed using a biotinylated vescalagin conjugate to discriminate the binding of vescalagin to F- versus G-actin confirms the value of the technique for the study of polyphenol-protein interactions. Finally, the inventors have to recall that oak-derived C-glucosidic ellagitannins, including vescalagin, are present in wines as a result of their aging in oak-made barrels.

actin (G-actin/F-actin) = assay: in vitro actin polymerization, F-actin (pellet) versus G-actin (supernatant) at steady state; type: biochemical; conditions: for G-actin/F-actin ratio at steady state: vescalagin 100 μM, cytochalasin D 4 μM, phalloidin 2 μM
Description: (§1) FIG. 4. A. Actin polymerization at its steady state in both permissive and non-permissive conditions was continued (30 min) in the presence of either alexa633-phalloidin or vescalagin-FITC. […] B. This effect is dose-dependent. C.
In the same way, quantifying the amount of F-actin (pellet) versus that of G-actin (supernatant) at the steady state was achieved by Western blot after high-speed centrifugation of samples treated with either vescalagin (100 μM), cytochalasin D (4 μM) or phalloidin (2 μM). […] The same effect was observed when using the vescalagin-FITC conjugate (FIG. 4C).

BAEc [4] = assay: cellular morphology and mitosis, light microscopy; type: cell-based, bovine
Description: (§2) Vescalagin-induced dissolution of stress fibers affected cellular morphology and, eventually, viability. […] Functional consequences on cell behavior translated into impaired endothelial cell wound repair capacity. […] Overall, this ensemble of experimental data illustrates the rapid and sustained effects of vescalagin on cell behavior.

microtubule network = assay: alteration of the microtubule network in treated cells; type: cell-based
actin-GFP in BAEc = assay: live imaging and FRAP on actin-GFP expressing BAEc; type: cell-based, bovine; conditions: 100 μM
Description: FIG. 2. Live imaging of BAEc expressing actin-GFP were subjected to FRAP in the absence or presence of vescalagin (100 μM). A. A boxed region (200×100 pixel square) was photobleached [before (t 0″), immediately after (t 38″) and after photobleaching (t 98″)]; and normalized fluorescence intensity in the boxed region is shown for the entire duration of the FRAP experiment. […] B. Quantitation of the results showing the immobile fraction as calculated from the difference between pre- and post-photobleaching intensities (n=6).
Destabilization of the stress fibers was visualised by the progressive loss of filamentous staining, concomitantly with cell retraction as observed in phase contrast. Noticeably, thick F-actin bundles were maintained. To detect and unveil the internal dynamics of these apparently immobile F-actin bundles, the inventors performed a fluorescence recovery after photobleaching (FRAP) assay on actin-GFP expressing BAEc in the absence or presence of vescalagin (FIG. 2). […] From these experiments, the inventors conclude that vescalagin affects both thin and thick actin fibers, F-actin bundles made of packed actin filaments being less vulnerable to the action of vescalagin than the single filament dendritic meshwork at the cell periphery.

[5] = tested on: mechanically injured endothelium; assay: endothelial cell wound repair; type: cell-based, bovine
Description: as §2

F-actin [6] = assay: phalloidin binding to vescalagin-decorated F-actin (binding site)
BAEc [7] = assay: propidium iodide (PI) staining, cytotoxicity; type: cell-based, bovine; conditions: for cytotoxicity by PI staining: 50 μM
Description: as §2

[8] = tested on: actin cytoskeleton in bovine aortic endothelial cells (BAEc); assay: effect on the actin cytoskeleton (stress fibers) in living BAEc; type: cell-based
Description: The inventors' initial interest in studying these C-glucosidic ellagitannins stems from the premise that the highly pre-organized medium-sized ring-containing multiple-phenol array featured by such natural products should be structurally well-suited to interfere with the construction of protein-made cellular architectures, on top of the list of which are actin filaments and microtubules. The inventors thus decided to probe the latter hypothesis by first examining the effect of a selection of four C-glucosidic ellagitannins on the actin cytoskeleton in living cells. […] The selected compounds were the two most abundant C-glucosidic ellagitannins found in the heartwood of oak species, vescalagin and its C-1 epimer castalagin, and their corresponding two minor congeners, vescalin and castalin, both lacking the hexahydroxydiphenoyl (HHDP) unit at positions 4 and 6 of the glucose core (FIG. 1). The inventors used bovine aortic endothelial cells (BAEc), a well-characterized type of primary cells. Any of the four ellagitannins used at 50 μM rapidly provoked the disappearance of the internal stress fiber network observed in control cells.

bone resorption = conditions: by inhibiting calcium release; cited from earlier work
F-actin [9] = assay: in vitro actin polymerization, high-speed centrifugation, stained pellet; type: binding; conditions: 30 min at steady state
Description: as §1
To explore whether or not the interaction between vescalagin and actin was direct, the inventors set up an in vitro assay based on actin polymerization from a solution of Ca^2+-actin-ATP monomers. Spontaneous polymerization occurs when Ca^2+ is replaced by Mg^2+ provided by the F-actin buffer. The inventors performed high-speed centrifugation of the samples to separate the neo-formed polymers from the monomers to discriminate binding of vescalagin to either F-actin, G-actin or both. To visualize these presumptive molecular associations, the inventors used again the vescalagin-bearing fluoprobe and a fluorescent Alexa633-phalloidin to stain F-actin. Actin polymerization was carried out until it reached its steady state in both permissive and non-permissive conditions (i.e., in the presence or absence of Mg^2+-containing F-buffer). The experiment was then continued for 30 min in the presence of either vescalagin-FITC conjugate or Alexa633-phalloidin, and the formation of actin polymers was then assessed by high-speed centrifugation.

Molecule: roburin C
- inhibition of osteoclast differentiation and function (osteoclast [1]): highest potency

Molecule: roburin D
- inhibition of osteoclast differentiation and function (osteoclast [1]): highest potency

Molecule: O=C1O[C@H]2[C@H](O)[C@@H](OC(=O)c3cc(O)c(O)c4c3[C@@H]3C1=CC(=O)C(O)(O)C3(O)O4)[C@H](OC(=O)c1cc(O)c(O)c(O)c1)O[C@@H]2CO (stereo partly shown) [furosin]
- osteoclast differentiation and function (osteoclast [2]): inhibitory effect

Molecule: O=C1O[C@H](CO)[C@@H](O)[C@@H]2OC(=O)c3c(c(O)c(O)c(O)c3-c3c(O)c(O)c(O)c4c3C(=O)O[C@H]2[C@@H]4O)-c2c1cc(O)c(O)c2O [vescalin]
- inhibition of podosome formation [3]: less pronounced effects

Molecule: O=C1OCC2OC(=O)c3cc(O)c(O)c(O)c3-c3c(O)c(O)c(O)c4c3C(=O)OC(C2OC(=O)c2cc(O)c(O)c(O)c2-c2c1cc(O)c(O)c2O)C1OC(=O)c2c-4c(O)c(O)c(O)c2C1O (stereo not shown) [vescalagin]
- reversibility of actin cytoskeleton alterations by washing (actin cytoskeleton; treatment 1 hour, 100 μM): reversible by washing
- reversibility of actin cytoskeleton alterations by washing (actin cytoskeleton; treatment 24 hours, 50 μM): reversible by washing
- reversal of cytoskeletal alterations by washing out with fresh medium (actin cytoskeleton; within 1 h): completely reversed
- reversibility of effects on the actin cytoskeleton (actin cytoskeleton; within 1 h of treatment, up to 100 μM): fully reversible
- dose dependence of the G-actin depletion (actin (G-actin/F-actin)): dose-dependent manner
- G-actin/F-actin ratio at steady state (actin (G-actin/F-actin)): marked depletion of G-actin
- mitosis (BAEc [4]; 50 μM): still observed
- mitosis (BAEc [4]; 100 μM): impaired
- cell morphology (BAEc [4]; range of concentrations and incubation times applied): changed their morphology from a well spread to a more retracted appearance
- alteration of the microtubule network (microtubule network): no alteration of the microtubule network
- actin-GFP distribution, live imaging (actin-GFP in BAEc): immediate alteration of actin-GFP distribution at cell margin
- immobile fraction of actin (FRAP) (actin-GFP in BAEc; n=6): increases the immobile fraction of actin
- serum-stimulated healing of mechanically injured endothelium ([5]; 20 μM): reduced by about half
- cell viability ([5]; 100 μM, 6 h): still compatible with the maintenance of cell viability
- repopulation of the denudated area ([5]; 100 μM, 6 h): remained virtually unpopulated
- binding site on F-actin relative to phalloidin (F-actin [6]): does not bind at the same site(s) as phalloidin
- inhibition of podosome formation (percentage of cells showing podosomes) ([3]; 24 h TGF-β, vescalagin versus vescalin): stronger inhibitor activity than vescalin
- inhibition of podosome formation [3]: less pronounced effects
- cytotoxicity by PI staining (BAEc [7]; 6 h): no cytotoxicity
- cytotoxicity by PI staining (BAEc [7]; 24 h): no cytotoxicity
- cell death (apoptotic nuclei) (BAEc [7]; 100 μM, 24 h): irreversible commitment to cell death; also recorded: presence of apoptotic nuclei
- relative activity within the series evaluated ([8]; four C-glucosidic ellagitannins): most active compound of the series

Molecule: C[C@@H]1NC(=O)[C@H](C[C@@](C)(O)CO)NC(=O)[C@@H]2Cc3c([nH]c4ccccc34)SC[C@H](NC(=O)[C@@H]([C@H](C)O)NC1=O)C(=O)N1C[C@@H](O)C[C@H]1C(=O)N[C@@H](C)C(=O)N2 [phalloidin, reference compound] (cyclo(A[dT]C[cisHyp]A[Trp(2-yl)][Leu(4R-OH,5-OH)]); thioether 3-6)
- G-actin/F-actin ratio at steady state (actin (G-actin/F-actin)): marked depletion of G-actin

Molecule: C=C1[C@@H](C)[C@H]2[C@H](Cc3ccccc3)NC(=O)[C@]23[C@H](OC(C)=O)/C=C/[C@@](C)(O)C(=O)[C@@H](C)C/C=C/[C@H]3[C@@H]1O [cytochalasin D, reference compound]
- alteration of the microtubule network (microtubule network): no alteration of the microtubule network
- effect on actin configuration (stress fibers) ([8]; BAEc, cytochalasin D comparison): also effective

Molecule: O=C(OC1C(OC(=O)c2cc(O)c(O)c(O)c2Oc2cc3c(c(O)c2O)-c2c(cc(O)c(O)c2O)C(=O)OC(C2OC(=O)c4cc(O)c(O)c(O)c4-c4c(cc(O)c(O)c4O)C(=O)OCC2O)C(C(O)c2c(O)cc4c(c2O)CC(O)C(c2ccc(O)c(O)c2)O4)OC3=O)C(O)OC2COC(=O)c3cc(O)c(O)c(O)c3-c3c(cc(O)c(O)c3O)C(=O)OC21)c1cc(O)c(O)c(O)c1 (stereo not shown) [camelliatannin D]
- bone resorption (bone resorption): potentially inhibits bone resorption

Molecule: fluorescein isothiocyanate [FITC]
- binding to F-actin (stained pellet after high-speed centrifugation) (F-actin [9]): no F-actin was detected
